Results from the supplement of paper PMC3974653.
Where a name gives a salt, the structure may show the parent alone.

Test system: MTT (mouse pheochromocytoma)
Assay: IC50 of cell viability (ATP content)
Conditions: (24 or 48 h)
In short: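 MTT mouse pheochromocytoma cells in white 1536-well plates were treated for 24 or 48 hrs with library compounds at 8 final concentrations from 0.5 nM to 46 µM. ATP content was measured with CellTiter-Glo luminescence, using positive-control wells as 100% and DMSO wells as 0%. IC50 came from a four-parameter logistic fit.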

Compound | IC50 of cell viability [µM]
O=C1[C@@H]2[C@H]3CC[C@H](C3)[C@@H]2C(=O)N1CCCCN1CCN(c2ncccn2)CC1 [Tandospirone] | > 46
O=CC=O [Glyoxal] | > 46
CC1=CCC(C(C)(C)O)CC1 (racemic) [Terpineol, mixture of isomers] | > 46
COc1cc(C(=O)NS(=O)(=O)c2ccccc2C)ccc1Cc1cn(C)c2ccc(NC(=O)OC3CCCC3)cc12 [Zafirlukast] | > 46
O=Cc1ccccc1 [Benzaldehyde] | > 46
CO[C@H]1C[C@@H]2CC[C@@H](C)[C@@](O)(O2)C(=O)C(=O)N2CCCC[C@H]2C(=O)O[C@H]([C@H](C)C[C@@H]2CC[C@@H](OCCO)[C@H](OC)C2)CC(=O)[C@H](C)C=C(C)[C@@H](O)[C@@H](OC)C(=O)[C@H](C)C[C@H](C)/C=C/C=C/C=C1C [EVEROLIMUS] | > 46
C\C1=C\C(=O)NC(=S)N1 [METHYLTHIOURACIL] | > 46
Nc1nc2ccc([N+](=O)[O-])cc2s1 [2-Amino-6-nitrobenzothiazole] | > 46
N=C(N)Nc1ccc(C(=O)Oc2ccc3cc(C(=N)N)ccc3c2)cc1 [NAFAMOSTAT MESILATE] | > 46
COC1=CC(=C2C(=O)[C@]\3(OC2=C1Cl)[C@H](C)CC(=O)\C=C3OC)OC [Griseofulvin] | > 46
CC(C)NC[C@H]1CCc2cc(CO)c([N+](=O)[O-])cc2N1 [Oxamniquine] | > 46
N#CC1(N2CCCCC2)CCCCC1 [1-PIPERIDINOCYCLOHEXANECARBONITRILE] | > 46
CC1(C)C2CC[C@]1(C)[C@@H](O)C2 [BORNEOL] | > 46
O=C1c2c(O)cccc2Cc2cccc(O)c21 [Anthralin] | > 46
CCCN(CCC)CCc1cccc2c1CC(=O)N2 [ROPINROLE] | > 46
Cc1ccc(Cl)c(O)c1 [CHLORO-M-CRESOL] | > 46
O=C(C1CCCCC1)N1CC(=O)N2CCc3ccccc3[C@@H]2C1 [Praziquantel] | > 46
O=C(NC(=O)c1c(F)cccc1F)Nc1cc(Cl)c(OC(F)(F)C(F)C(F)(F)F)cc1Cl (configuration not stated) [Lufenuron] | > 46
CCOC(=O)Nc1ccc(NCc2ccc(F)cc2)nc1N [Flupirtine maleate salt] | > 46
CCCSP(=O)(OCC)SCCC [Ethoprop] | > 46
COCCOC(=O)\C1=C(/C)N\C(=C(/C1C2=CC=CC(=C2)[N+]([O-])=O)C(=O)OC(C)C)C (configuration not stated) [NIMODIPINE] | > 46
CC1(C)SC2[C@@H](/N=C/N3CCCCCC3)C(=O)N2[C@H]1C(=O)O (some centres not stated) [Amdinocillin] | > 46
O=C1c2ccccc2C(=O)C1c1ccccc1 [Phenindione] | > 46

Compound | IC50 of cell viability [µM]
Cc1cc(C(C)(C)C)c(O)c(C(C)(C)C)c1 [Butylated hydroxytoluene] | > 46
CCOC(=O)[C@H](CCc1ccccc1)N[C@@H](C)C(=O)N1[C@H](C(=O)O)C[C@H]2CCCC[C@@H]21 [Trandolapril] | > 46
CCC(C)(S(=O)(=O)CC)S(=O)(=O)CC [SULFONETHYLMETHANE] | > 46
C=CCCCCCCCCC(=O)OC [METHYL UNDECENOATE] | > 46
C[C@H]1O[C@H](C[C@H](O)[C@@H]1O)O[C@H]2[C@@H](O)C[C@@H](O[C@@H]2C)O[C@H]3[C@@H](O)C[C@@H](O[C@@H]3C)O[C@H]4CC[C@@]5(C)[C@H](CC[C@@H]6[C@@H]5C[C@@H](O)[C@]7(C)[C@H](CC[C@]67O)C/8=C/C(=O)OC8)C4 [Digoxin] | > 46
CCN1C[C@]2(COC)[C@H](O)C[C@H](OC)[C@]34C1C([C@H](OC)[C@H]23)[C@]1(OC(C)=O)[C@H]2[C@@H](OC(=O)c3ccccc3)[C@](O)(C[C@H]24)[C@@H](OC)[C@@H]1O [ACONITINE] | > 46
CCO[C@@H](Cc1ccc(OCCc2ccc(O[S+](C)(=O)[O-])cc2)cc1)C(=O)O [Tesaglitazar] | > 46
CC(=O)Oc1cc(C(F)(F)F)ccc1C(=O)O [Triflusal] | > 46
NC(=O)OC[C@@H]1[C@H](NC(=O)/C(=N/OCC(=O)[O-])c2csc(N)n2)C(=O)N1S(=O)(=O)[O-] [CARUMONAM SODIUM] | > 46
Cc1cccc(C)c1NC(=O)CN1CCN(CCCC(c2ccc(F)cc2)c2ccc(F)cc2)CC1 [Lidoflazine] | > 46
CC#CCC(C)[C@H](O)/C=C/C1[C@H](O)C[C@@H]2C/C(=C\CCCC(=O)O)C[C@H]12 (some centres not stated) [Iloprost] | > 46
CNc1c2c(nn1C)CCCC2 [TETRIDAMINUM] | > 46
CCN(CC)CCOC(=O)C(O)(c1ccccc1)c1ccccc1 [BENACTYZINUM] | > 46
CCN(CC)C(=O)N1CCN(C)CC1.O=C(O)CC(O)(CC(=O)O)C(=O)O [Diethylcarbamazine citrate] | > 46
COc1ccc(-c2cc(C(F)F)nn2-c2ccc([S+](N)(=O)[O-])cc2)cc1F [DERACOXIB] | > 46
CNCCC(Oc1ccccc1OC)c1ccccc1 (configuration not stated) [NISOXETINE] | > 46
CCCCCNC(=N)N/N=C/c1c[nH]c2ccc(OC)cc12 [TEGASEROD] | > 46
CC1CN(c2c(F)c(N)c3c(=O)c(C(=O)O)cn(C4CC4)c3c2F)CC(C)N1 (configuration not stated) [SPARFLOXACIN] | > 46
CC(=O)O[C@H]1CC[C@@]2(C)C(=CC[C@H]3[C@@H]4CC[C@H](C(C)=O)[C@@]4(C)CC[C@@H]32)C1 [3BETA-ACETOXY-5-PREGNENE-20-ONE] | > 46
Cc1ccccc1N1C(=O)c2cc([S+](N)(=O)[O-])c(Cl)cc2NC1C (configuration not stated) [Metolazone] | > 46
CC(C)(C)c1ccc(CN2CCN([C@H](c3ccccc3)c3ccc(Cl)cc3)CC2)cc1 [Buclodin] | > 46
CN1CCC(N(Cc2cccs2)c2ccccc2)CC1 [Thenalidine] | > 46
CC(=O)OCC(=O)[C@H]1CC[C@H]2[C@@H]3CCC/4=C/C(=O)CC[C@]4(C)[C@H]3CC[C@]12C [DESOXYCORTICOSTERONE ACETATE] | > 46

Compound | IC50 of cell viability [µM]
CCN(CC)CCOc1ccc2nc(N(C)C)sc2c1 [DIMAZOLE DIHYDROCHLORIDE] | > 46
C[C@H](N)Cc1ccccc1 [AMPHETAMINE ADIPATE] | > 46
CCOCC(O)COc1ccc(NC(=O)CC[S+](C)C)cc1 (configuration not stated) [SUPLATAST TOSILATE] | > 46
COCCc1ccc(OCC(O)CNC(C)C)cc1 (racemic) [(±)-Metoprolol (+)-tartrate salt] | > 46
N=C(N)N1CCc2ccccc2C1 [Debrisoquin sulfate] | > 46
CCCCCOC(=O)Nc1nc(=O)n(C2O[C@H](C)[C@@H](O)[C@@H]2O)cc1F (some centres not stated) [Capecitabine] | > 46
O[C@@H]([C@H](O)[C@H](O)CBr)[C@H](O)CBr [MITOBRONITOL] | > 46
CC(O)CO (configuration not stated) [1,2-Propylene glycol] | > 46
COC1=CC=C2[N]3CCN(C)\C4=N\CCC(=C34)C2=C1 [Metralindole] | > 46
OC(O)C(Cl)(Cl)Cl [CHLORAL HYDRATE] | > 46
CC(C)(Sc1cc(C(C)(C)C)c(O)c(C(C)(C)C)c1)Sc1cc(C(C)(C)C)c(O)c(C(C)(C)C)c1 [Probucol] | > 46
CCN(CC)C(=O)N[C@@H]1C=C2c3cccc4[nH]cc(c34)C[C@H]2N(C)C1 [S(-)-LISURIDE] | > 46
Cn1c(=O)c2c(ncn2C[C@@H](O)CO)n(C)c1=O [Diprophylline] | > 46
CN(C)c1ccc(O)c2c1CC1CC3C(N(C)C)C(=O)C(C(N)=O)C(=O)C3(O)C(=O)C1C2=O (configuration not stated) [Minocycline] | > 46
Cl.Nc1cc(Cl)c(N=C2NCCN2)c(Cl)c1 [p-Aminoclonidine hydrochloride] | > 46
CCC(C(=O)OCCOCCN(CC)CC)c1ccccc1 (configuration not stated) [Butamirate citrate] | > 46
CCCCNCC(O)c1ccc(O)cc1 (configuration not stated) [Bametano] | > 46
CCOC(=O)COC1=C(Cl)C2=C(C=C1)\C(=C(CCN(CC)CC)/C(=O)O2)C [CLORICROMENUM] | > 46
Nc1nc(N)nc(-c2cc(Cl)ccc2Cl)n1 [IRSOGLADINE MALEATE] | > 46
C[C@@H](N)C(=O)O [D-ALANINE] | > 46
O=C([O-])c1cccc(/C=C2/C[C@@H]3[C@@H](/C=C/[C@@H](O)C4CCCCC4)[C@H](O)C[C@@H]3O2)c1 [Taprostene sodium salt] | > 46
